These are literature values, as cited in patent publication US20110015663A1, “Combination Therapies for the Treatment of Obesity” (priority 2009, published 2011).

Settings in the first data set: not given
For G-2-beta-cyclodextrin, the solubility in water was 147 % (w/v).
In the case of triacetyl-beta-cyclodextrin, the solubility in water result is recorded as “insoluble”.

The conditions of another data set: literature studies.
Consider `CCN[C@@H](C)Cc1cccc(C(F)(F)F)c1` [dexfenfluramine], for which the “weight loss for drug compared with placebo” value is on record as “about 5 % of body weight”.
Regarding `CCCCCCCCCCC[C@@H](C[C@@H]1OC(=O)[C@H]1CCCCCC)OC(=O)[C@H](CC(C)C)NC=O` [orlistat], the “weight loss for drug compared with placebo” value was “about 5 % of body weight”.
For the compound `CC(C)(N)Cc1ccccc1` [phentermine], the “weight loss for drug compared with placebo” value is on record as “about 5 % of body weight”.
With `CC(C)CC(N(C)C)C1(c2ccc(Cl)cc2)CCC1` (stereo not drawn) [sibutramine], the “weight loss for drug compared with placebo” value is on record as “about 5 % of body weight”.
